Test results reported in article PMC6839601, “Discovery of selective, antimetastatic and anti-cancer stem cell metallohelices via post-assembly modification” (Chemical Science, 2019).

Columns and labels:
A2780cisR (ovarian) = experiment: Antiproliferative activity (MTT assay), A2780cisR; format: cell-based, human; conditions: 72 h, mean ± SD, read-out: Cell viability IC50, A2780cisR (ovarian)
Excerpt: (§1) The human ovarian carcinoma cisplatin-sensitive A2780 cells, cisplatin-resistant A2780cisR (a cisplatin-resistant variant of A2780 cells), human cervical carcinoma HeLa cells, human breast cancer MCF-7 cells and human colorectal carcinoma cells HCT-116 (for experiments performed at the Czech Academy of Sciences) were kindly supplied by Professor B. Keppler, University of Vienna (Austria). Human colon carcinoma cells expressing p53 (HCT116 p53^+/+) were a kind gift of Dr M. Brazdova, Institute of Biophysics, Brno (Czech Republic). […] These solutions were removed, dimethyl sulfoxide was added to each well, and the absorbance at 540 nm was read using a Thermo Scientific Multiskan EX microplate photometer. The IC50 values were determined from a plot of percentage cell survival against drug concentration (in μM). All assays were conducted in triplicate and the mean IC50 ± standard deviation was determined. page 43: 8. […] Cell survival was determined as the absorbance of treated cells minus the blank cell media, divided by the absorbance of the untreated control; this value was expressed as a percentage. The IC50 values were determined from a plot of percentage cell survival against drug concentration (µM). All assays were conducted in triplicate and the mean IC50 ± standard deviation was determined. […]

[1] = system: ARPE-19 (non-cancerous) cells; experiment: Antiproliferative activity (MTT assay), ARPE-19; format: cell-based, human; conditions: cells treated for 96 h, mean ± SD, read-out: Cell viability IC50, ARPE-19 (retinal)
Excerpt: as §1

WI-38 (lung) = experiment: Antiproliferative activity (MTT assay), WI-38; format: cell-based; conditions: cells treated for 96 h, mean ± SD, read-out: Cell viability IC50, WI-38 (lung)
Excerpt: as §1

[2] = system: HCT116 p53+/+ colon cancer cells; experiment: Antiproliferative activity (MTT assay), HCT116 p53+/+; format: cell-based, human; conditions: cells treated for 96 h, mean ± SD, read-out: Cell viability IC50, HCT116 p53+/+ (colon)
Excerpt: as §1

HMF (breast) = experiment: Antiproliferative activity (MTT assay), HMF; format: cell-based; conditions: cells treated for 96 h, mean ± SD, read-out: Cell viability IC50, HMF (breast)
Excerpt: as §1

MRC-5 pd30 (lung) = experiment: Antiproliferative activity (MTT assay), MRC-5 pd30; format: cell-based, human; conditions: 72 h, mean ± SD, read-out: Cell viability IC50, MRC-5 pd30 (lung)
Excerpt: as §1

HCT116 p53-/- (colon) = experiment: Antiproliferative activity (MTT assay), HCT116 p53-/-; format: cell-based, human
Excerpt: as §1

## N.N.[Cl][Pt][Cl] [Cisplatin, cisplatin]
A2780cisR (ovarian)
  IC50: 20 ± 3 µM
[1]
  IC50: 6.4 ± 1 µM
WI-38 (lung)
  IC50: 2.2 ± 0.8 µM
[2]
  IC50: 3.3 ± 0.4 µM
HMF (breast)
  IC50: 18 ± 2 µM
MRC-5 pd30 (lung)
  IC50: 12 ± 1 µM
HCT116 p53-/- (colon); HCT116 p53-/- vs p53+/+ (Table 1)
  loss of activity towards HCT116 p53-/- cells relative to p53+/+ isogenic clones: > 2 fold
HCT116 p53-/- (colon); MTT, cells treated for 96 h, mean ± SD, read-out: Cell viability IC50, HCT116 p53-/- (colon)
  IC50: 7.5 ± 0.7 µM
